Where “and” joins values, the source holds several entries; their conditions need not be identical. Equal entries are not always repeated.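 Values below derive from 48-hour exposures of cells grown in 96-well plates, with endpoints linearly interpolated between the two concentrations bracketing the appropriate inhibition level. Abbreviation: GI50, concentration required for 50% inhibition of growth. TGI marks complete inhibition of growth.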
How the values were obtained:
Test in all cases: NCI-60 cell line screen, 48 h
NCI-H23 lung = system: NCI-H23 lung
NCI-H460 lung = system: NCI-H460 lung
CCRF-CEM leukemia = system: CCRF-CEM leukemia
UACC-257 melanoma = system: UACC-257 melanoma
RPMI-8226 leukemia = system: RPMI-8226 leukemia
MOLT-4 leukemia = system: MOLT-4 leukemia
NCI-H226 lung = system: NCI-H226 lung
HCC-2998 colon = system: HCC-2998 colon
MDA-MB-231 breast = system: MDA-MB-231 breast
ACHN renal = system: ACHN renal

Row | Structure (SMILES) | GI50 (NCI-H23 lung) [µM] | TGI (NCI-H23 lung) [µM] | GI50 (NCI-H460 lung) [µM] | TGI (NCI-H460 lung) [µM] | GI50 (CCRF-CEM leukemia) [µM] | TGI (CCRF-CEM leukemia) | GI50 (UACC-257 melanoma) [µM] | TGI (UACC-257 melanoma) | GI50 (RPMI-8226 leukemia) [µM] | TGI (RPMI-8226 leukemia) [µM] | GI50 (MOLT-4 leukemia) | TGI (MOLT-4 leukemia) | GI50 (NCI-H226 lung) [µM] | TGI (NCI-H226 lung) [µM] | GI50 (HCC-2998 colon) [µM] | TGI (HCC-2998 colon) [µM] | GI50 (MDA-MB-231 breast) [µM] | TGI (MDA-MB-231 breast) | GI50 (ACHN renal) [µM] | TGI (ACHN renal)
1 | Nc1cc2c3c(cccc3c1)C(=O)N(CCN1CCCC1)C2=O | 3.33 | 22.8 | 0.666 | > 24.5 | 3.88 | > 35.6 µM | 3.35 | 24.5 µM | 1.23 | 11.9 | 1.74 µM | > 46.4 µM | 1.98 | 6.23 | 2.78 | 15 | 4.95 | 40.7 µM |  | 
2 | CCCCNC(c1ccc(Cl)cc1)C(O)c1ccc(Cl)cc1 (stereo not given) | 2.25 | 7.59 | 1.76 | 4.41 | 2.49 | 8.65 µM | 2.25 | 5.03 µM | 2.09 | 5.51 | 1.67 µM | 6.67 µM | 6.58 | 25.1 | 1.83 | 3.85 |  |  | 2.46 | 7.36 µM
3 | COC(=O)C1C=CCC2CCCCC21N1CCCC1 (stereo not given) |  |  |  | > 100 |  | > 100 µM |  | > 100 µM |  | > 100 |  | > 100 µM |  | > 100 |  | > 100 |  |  |  | > 100 µM
4 | N/N=C(/Cc1ccccc1)NNO |  | > 100 |  | > 100 |  | > 100 µM |  | > 100 µM |  |  |  | > 100 µM |  | > 100 |  | > 100 |  |  |  | > 100 µM
5 | Cc1ccc(C2=CC(=O)c3ccccc3C2=O)n1-c1ccccc1 |  | > 100 |  | > 100 |  | 84.5 µM |  |  |  | > 100 |  | 98.5 µM |  | 84.8 |  | > 100 |  |  |  | 
6 | COc1cc2c(cc1C)NC(=O)/C2=C/c1ccnc2ccccc12 | 25.5 | > 50 | 15.3 | > 50 |  |  | 9.77 | 48.9 µM | 19.7 | > 50 | > 50 µM | > 50 µM |  |  | 35.7 | > 50 | 9.49 | 32.6 µM | 10.3 | 25.6 µM
7 | CN(C)C(=S)/N=c1\ss/c(=N\C(=S)N(C)C)n1-c1cccc(Cl)c1 |  | > 100 |  | > 100 |  | > 100 µM |  | > 100 µM |  | > 100 |  | > 100 µM |  | > 100 |  | > 100 |  |  |  | > 100 µM
8 | [N-]=[N+]=CC(=O)CCC(N)C(=O)O (stereo not given) | 6.94 | > 215 | 2.93 | 147 | 5.82 | 54.6 µM and 157 µM | 78.5 | > 250 µM |  |  | 0.468 µM |  |  | > 250 | 62.7 | > 250 |  | > 250 µM | 5.54 | > 250 µM
9 | COc1cc2c(cc1OCCNC(=O)/C=C1\C[C@H]3C=Nc4cc(OCc5ccccc5)c(OC)cc4C(=O)N3C1)N=C[C@@H]1CCCN1C2=O | 9.26 | 27 | 13.6 | 30.6 |  |  |  |  | 1.18 | 2.74 |  |  | 32 | 60.1 |  |  | 5.11 | 23.4 µM | 25.8 | 71.5 µM
10 | C1=CC(=P(c2ccccc2)(c2ccccc2)c2ccccc2)C=C1 |  | 54.3 |  | 26 |  | 13.4 µM |  | 20.3 µM |  | 11 |  | 23.4 µM |  |  |  | 24.3 |  |  |  | 28.2 µM
11 | CCOc1c(Br)cc(Br)cc1C=C(C#N)C#N |  | > 10 |  | > 10 |  | > 10 µM |  |  |  | > 10 |  | > 10 µM |  | > 10 |  | > 10 |  |  |  | > 10 µM
12 | CC(C)Cc1cnc(CC(C)C)c(=O)[nH]1 |  | > 100 |  | > 100 |  | > 100 µM |  | > 100 µM |  | > 100 |  | > 100 µM |  |  |  | > 100 |  | > 100 µM |  | > 100 µM
13 | OCC(O)C(O)C(O)C(/C=N\Nc1ncnc2c(Br)cc(Br)cc12)=N/Nc1ncnc2c(Br)cc(Br)cc12 (stereo not given) |  |  |  |  |  |  |  | 33.2 µM and > 100 µM | 19.6 | > 100 | 4.91 µM and 2.37 µM | 34.3 µM and > 100 µM |  | 9.42 |  |  |  | 15.7 µM and > 100 µM |  | 33 µM and > 100 µM
14 | O=C1CC23CCCCCCCCCCC2(C1)CC(=O)C3 (stereo not given) |  | > 100 |  | > 100 |  | 44.4 µM |  | > 100 µM |  | 45.4 |  | 56.2 µM |  | > 100 |  | > 100 |  |  |  | > 100 µM
15 | O=C(Nc1sc2c(c1C(=O)O)CCCC2)c1ccco1 |  |  | 23.5 | > 50 | > 50 | > 50 µM | > 50 | > 50 µM | > 50 | > 50 | > 50 µM | > 50 µM |  |  |  |  | > 50 | > 50 µM | 14.1 | > 50 µM
16 | O=S(=O)(NC1=NCCN1C(=S)SN1CCn2c1nsc2=S)c1ccc(Cl)cc1 | 14.4 | 32.6 | 10.2 | 38.6 |  |  | 10.8 | 29.4 µM | 4.33 | > 100 | 3.56 µM | 21.7 µM | 5.77 | 20.7 | 11 | 23.6 | 4.06 | 19.4 µM | 6.05 | 18.6 µM
17 | CC(C)(C)C#COC(=O)c1ccccc1 |  | > 100 |  | > 100 |  | > 100 µM |  | > 100 µM |  | > 100 |  | > 100 µM |  | > 100 |  | > 100 |  |  |  | > 100 µM
18 | O=C(c1ccccc1)C1N=NN(Cc2ccccc2[N+](=O)[O-])C1C(=O)c1ccccc1 (stereo not given) |  | > 100 |  | > 100 |  | > 100 µM |  | > 100 µM |  | > 100 |  | > 100 µM |  | > 100 |  | > 100 |  |  |  | > 100 µM
19 | CC(C)C[C@@H](N)[C@@H](O)C(=O)N[C@H](C(=O)N[C@H](C(=O)N[C@@H](CC(=O)O)C(=O)O)C(C)C)C(C)C | > 20 | > 20 | > 20 | > 20 | > 20 | > 20 µM | > 20 | > 20 µM |  |  | > 20 µM | > 20 µM | > 20 | > 20 | > 20 | > 20 | > 20 | > 20 µM | > 20 | > 20 µM
20 | O=c1c(Cc2ccccc2)c(O)cc2n1CCC2 |  | > 100 |  | > 100 |  | > 100 µM |  | > 100 µM |  | > 100 |  | > 100 µM |  | > 100 |  | > 100 |  |  |  | > 100 µM

— PubChem BioAssay (NCI)
